Results reported in patent publication US8466202B2, “Anthracenedione compounds” (Sunten Phytotech Co., Ltd., priority 2006, dated 2013).
Several values for one entry are separate records, joined by “and”; a condition that tells them apart may be missing. Identical values can stand only once.

Columns and labels:
Type in all cases: in vivo, rat
[1] = test system: healthy male S.D. rats; assay: Feces production in rats given Rheum palmatum Linne extracts for three weeks (Example 2); settings: oral everyday, Rheum palmatum crude extract 500, Bisacodyl 1.75, Sennosides 3.55, STD03 180, STD05-1 12, STD05-2 24 mg/kg; for Water content: feces; for Pellet count / Wet Weight: total of the six rats in the group
Method: The laxative activities by Rheum palmatum Linne extracts were studied. A crude Rheum palmatum Linne extract and STD05 were obtained from SunTen Phytotech Co., Ltd. (Jhonghe City, Taiwan). Commercial available laxatives, Through® (Chung Mei Pharmaceutical Co., Ltd.; active ingredient: Sennosides 20 mg, as Sennosides A+B 12 mg, Lot. 009A 051) and Dulcolax® (Boehringer Ingelheim, Taiwan, Ltd.; active ingredient: Bisacodyl; Lot. 480-4942) were obtained from a pharmacy.
Forty-two healthy male S.D. rats (8 weeks old; National Laboratory Animal Center, Taiwan) were divided into seven groups (six in each) and tested for the laxative activity by Rheum palmatum Linne extracts. The rats in one group were not fed with any extract or drug and used as negative controls. The rats in the second and third group were given Sennosides (3.55 mg/kg) and Bisacodyl (1.75 mg/kg), respectively, and used as positive controls. The Rats in the other four groups were given Rheum palmatum Linne crude extract (500 mg/kg), filtered crude extract STD03 (180 mg/kg), and STD05 (STD05-1: 12 mg/kg and STD05-2: 24 mg/kg), respectively. All substances were administered orally everyday for three weeks.
The experiments were carried out under conditions in which temperature, humidity, and lighting were all controlled. Each rat was fed standard rat food and water ad libitum in housing that provided a 12-hour light/dark cycle. The rats were divided into seven groups according to the body weights.
The first part of the experiment studied the effect of the above-mentioned extracts on feces production. During the three-week period, any rat that appeared dying was euthanized, dissected, and studied to check for any illness or injures. Any complications or illness were analyzed by H&E stains to determine the cause of death and to allow for dosage reconsiderations for future experiments.
During this period, the body weights of the rats were weighed each day and recorded. Feces of each rat were studied three times during the period for any unusual observations. Specifically, the amounts of feces were weighed on Days 11, 15, 18, and 21. During observation, each rat was placed in a metabolic cage. Feces were collected every twenty-four hours. The number of collected feces pellets was counted, and the pellets' shapes and colors were evaluated. After weighing the moist feces, they were dried in an oven at 100° C. for twenty-four hours. The water content from the feces was calculated according to the following formula: Water content percentage=[(wet weight−dry weight)/wet weight]×100%.
Intestine motility data were expressed as mean±SD. Data were analyzed using the one-way ANOVA method. For comparison within the groups, a Post hoc Comparison was applied. In both feces production and intestine motility analyses, p<0.05 indicates significant differences. For the feces production tests, the data for each group and each time point represent the total wet weight or pellet count of the six rats in the group.

[2] = test system: healthy male S.D. rats; assay: Intestinal motility test after the feces tests (Example 3); settings: after the 10-day feces tests; control rats 61.1%; dose not stated
Method: After the above-discussed feces tests, intestinal motility tests were conducted. Before the experiment, the rats were fasted for at least sixteen hours. The rats were then given the aforementioned drugs or extracts. After 3 hours, each rat was given 3 ml/kg of 0.5% methylcellulose solution-0.5% Evans blue dye. Each rat was sacrificed 30 minutes later and its abdominal cavity was cut open. The entire small intestine was extracted and carefully straightened. The entire stretch between the pylorous and cecum was measured as the small intestine length. The distance traveled by Evans blue dye along the intestines was also measured. During dissection, any unusual observations were recorded and photographed. The intestinal motility function was calculated in the following formula: Intestine motility=(Evans blue dye length/small intestine length)×100%. After finishing the feces tests, intestinal motility tests were conducted in the same manner described above. During dissection, any unusual observations were recorded and photographed. For comparison within the groups, a Post hoc Comparison was applied with p<0.05 indicating significant differences.

[3] = Body weight of rats over the 10-day period (Example 3); design: Body weight Difference: unit not given here; settings: Sennosides 3.35 mg/kg/day; for Body weight Difference, Mean / Body weight End Day 10, Mean: group mean; for Body weight Difference, Mean / Body weight Difference: Day 10 minus Day 1; for Body weight Difference / Body weight End Day 10: individual rats
Outline: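 Healthy male S.D. rats, 6 per treatment, given test substances daily at 4–24 mg/kg/day (dose per substance), with untreated and 3.35 mg/kg/day sennoside controls. Body weight recorded each day over 10 days; standard food and water ad libitum, 12-hour light/dark cycle.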

[4] = Group I, STD05 8 mg/kg, ARE 8 mg/kg, Aloe-emodin 4 mg/kg, Rhein 4 mg/kg
[5] = Group II, STD05 24 mg/kg, ARE 24 mg/kg, Chrysophanol 4 mg/kg, Emodin 4 mg/kg

Sennosides
Water content ([1]; Day 11): 52.70%
Pellet count ([1]; Day 11): 121
Wet Weight ([1]; Day 11): 29.21 g
Water content ([1]; Day 15): 60.40%
Pellet count ([1]; Day 15): 119
Wet Weight ([1]; Day 15): 30.95 g
Water content ([1]; Day 18): 47.30%
Pellet count ([1]; Day 18): 106
Wet Weight ([1]; Day 18): 23.90 g
Water content ([1]; Day 21): 44.73%
Pellet count ([1]; Day 21): 123
Wet Weight ([1]; Day 21): 27.80 g
intestinal motility [2]: 67.9%
Body weight Difference, Mean [3, 4]: 53 g
Body weight End Day 10, Mean [3, 4]: 338 g
Body weight Difference [3, 4]: 45 (2×) and 60 and 35 and 65 and 70
Body weight End Day 10 [3, 4]: 325 and 330 and 350 (2×) and 310 and 365
Body weight Difference, Mean [3, 5]: 41 g
Body weight End Day 10, Mean [3, 5]: 398 g
Body weight Difference [3, 5]: 30 and 45 and 40 (2×) and 35 and 55
Body weight End Day 10 ([3]; Group II, STD05 24 mg/kg, ARE 24 mg/kg, Chrysophanol 4 mg/kg, Emodin 4 mg/kg, in g (unit assumed)): 370 and 395 and 405 and 360 and 410 and 445
